{"source": "paper PMC3906007", "about": "“Discovery of a Small Molecule Agonist of Phosphatidylinositol 3-Kinase p110α That Reactivates Latent HIV-1” (PLoS ONE, 2014)", "key": {"PI3K p110α": {"test_system": "T1, PI3K p110α", "T1 construct": "purchased Millipore (Billerica, MA)", "assay": "PI3K activity assay (PIP3 production, Millipore kit) in combination with wortmannin, p110α", "format": "biochemical", "conditions": "recombinant purified enzyme; 100 nM wortmannin + 5 µM compound", "experimental": "The production of phosphatidylinositol (3,4,5)-triphosphate (PIP3) by the four class I PI3K isoenzymes (p110 α, β, γ, δ) was assessed using the PI3 Kinase Activity/Inhibitor Assay Kit (Millipore, Billerica, MA) according to the manufacturer's instructions. This assay works on the principle that the PH domain of the protein GRP-1 binds PIP3 with high affinity and specificity. This protein binds to the glutathione plate and captures either the PIP3 generated as part of the kinase reaction or the biotinylated-PIP3 tracer included in the kit. The captured biotinylated-PIP3 is detected using streptavidin-HRP conjugate and a colorimetric read out (OD 450).\nThe class I PI3Ks are heterodimeric enzymes formed by association of a p110 catalytic subunit with a p85 regulatory subunit. There are 4 variants of the p110 catalytic subunit designated p110α, β, δ or γ [22]. […] Briefly, in this assay the PIP3 generated as part of the kinase reaction or the biotinylated-PIP3 tracer included in the kit is captured on a glutathione plate via its interaction with the pleckstrin homology (PH) domain of the glutathione S-transferase (GST)-fusion protein general receptor for phosphoinositides-1 (GRP-1). The captured biotinylated-PIP3 is then detected using a streptavidin-HRP conjugate and a colorimetric read out."}, "[1]": {"test_system": "latent HIV-1 in CD8+-depleted MNC", "format": "cell-based", "conditions": "for Copies HIV RNA/mL: 7 days", "excerpt": "Healthy HIV-1 uninfected blood donors and HIV-1-infected donors on suppressive cART with plasma HIV-1 RNA less than 50 copies/mL for >2 year provided written informed consent and underwent a large volume phlebotomy (100–200 mLs). The protocol for blood donation was approved by the Institutional Review Board of the University of Pittsburgh (IRB #PRO10070203).\nCD8+T-cells were depleted from whole blood using RosetteSep Human CD8 Depletion Cocktail (StemCell Technologies, Vancouver, BC) according to manufacturer's instructions. 2×10^6 CD4^+ MNC cells were seeded in triplicate per treatment in 48-well plates and allowed to rest overnight. […] Activation controls were treated with CD3/CD28 Dynabeads (Life Technologies, Grand Island, NY). After 7 days of incubation, supernatants from triplicate wells were pooled, centrifuged (500 g×5 min), and stored at −80°C. HIV-1 RNA levels in supernatants were determined using the COBAS® AmpliPrep/COBAS® TaqMan® HIV-1 Test, v2.0 (Roche, Indianapolis, IN)."}, "[2]": {"assay": "Cytotoxicity (MTT or CellTiter 96), Jurkat", "format": "cell-based", "conditions": "human, Jurkat cells; 24 hour incubation; mean ± SD, 3 replicates", "experimental": "Following a 24 hour incubation period, cell viability was measured using either the MTT (Roche Applied Science, Indianapolis, IN) or CellTiter 96 proliferation (Promega, WI) assay."}, "[3]": {"test_system": "latent HIV-1 in U1 cell line", "assay": "Latent HIV-1 reactivation in U1 cells (quantitative PCR of early and late viral RNA transcripts)", "format": "cell-based", "experimental": "(§1) Three different cell lines of HIV-1 latency were used in this study. These included J89GFP, U1 and ACH-2 cells. The J89GFP cells were a kind gift from Dr. David Levy. The ACH-2 and U1 cells were obtained through the AIDS Research and Reference Reagent Program, Division of AIDS, NIAID, NIH: Dr. Thomas Folks contributor [19]–[21]. Reactivation of latent HIV-1 in the J89GFP cells was measured by quantifying the percentage of EGFP positive cells using a BD FACScan flow cytometer with BD FACSDiva software (BD Biosciences, CA), as described previously. Reactivation of latent HIV-1 in the ACH-2 and U 1 cells was assessed by quantitative analysis of initiated and elongated HIV-1 transcripts, as described previously. All 3 cell lines were maintained in RMPI 1640 medium supplemented with 10% FBS, 0.3 mg/mL L-glutamine, 100 U/mL penicillin, and 100 µg/mL streptomycin at 37°C in humidified air with 5% CO2.\nFigure 2 Latent HIV-1 reactivation activity of 57704, alone and in combination with other inducing agents, in the U1 and ACH2 cell line models of virus latency. HIV-1 expression was assessed by quantitative PCR analysis of early and late viral RNA transcripts. Where appropriate, TNFα was used as an activation control. (A) Latent HIV-1 reactivation of activity 57704 in the J89GFP cell line. […] (B) Latent HIV-1 reactivation activity of 57704 in the ACH2 cell line. (C) Latent HIV-1 reactivation of activity 57704 in the U1 cell line. (D) Graph of activation of latent HIV-1 early and late gene transcript expression in the ACH2 and U1 cell lines. EC50 values were determined in Sigma Plot by nonlinear regression, as described previously. (E) Latent HIV-1 reactivation of 5 µM 57704 in combination with 1 µM prostratin in the U1 cell line. […]. (G) Latent HIV-1 reactivation of 5 µM 57704 in combination with 2.5 µM DSF in the U1 cell line. (H) Latent HIV-1 reactivation of 5 µM 57704 in combination with 20 µM BIX-01294 in the U1 cell line. Data represent the mean ± standard deviation from 3 replicate experiments."}, "[4]": {"test_system": "latent HIV-1 in J89GFP cells", "assay": "Latent HIV-1 reactivation in J89GFP cells (EGFP positive cells, flow cytometry)", "format": "cell-based", "experimental": "as §1\nTo identify novel activators of latent HIV-1 expression, we screened 640 pure natural products from the TimTec Natural Compound Library at a concentration of 10 ng/mL for 24 hrs in a Jurkat cell (J89GFP) model of latency for their cytotoxicity and ability to reactivate HIV-1 expression. J89GFP cells contain a stably integrated, full-length HIV-1 provirus with an enhanced GFP (EGFP) reporter incorporated into the viral genome. The viral genome in these cells is transcriptionally silent. However, upon stimulation viral transcription is activated and viral expression can be measured by EGFP production. […]."}, "purified T cells": {"test_system": "purified T cells", "assay": "Global T cell activation (surface expression of CD69, CD38 and HLA-DR)", "format": "cell-based", "conditions": "different concentrations, up to 5 days", "quoted_text": "Peripheral blood MNC were obtained from the blood of healthy donors by Ficoll-Paque PLUS (GE Healthcare, Piscataway, NJ) density gradient centrifugation. T cells were isolated using the Pan T Cell Isolation kit (Miltenyi Biotec, Auburn, CA) according to manufacturer's instruction. Briefly, non-T cells were depleted from the MNC using biotin-conjugated antibodies to CD14, CD15, CD16, CD19, CD34, CD36, CD56, CD123, and CD235a and anti-biotin-labeled magnetic beads. […] Cells were then washed twice with PBS, resuspended in PBS with 4% PFA and stored in the refrigerator until analysis. Samples were analyzed on a BD LSRII flow cytometer and analyzed using FACsDiva software (BD Biosciences, Mountain View, CA). Forward versus side scatter plot was used to define the live cell population and fluorescence gates were set based on isotype control fluorescence."}}, "note": "Where two headings read alike, the source gives them in different places.", "data": [{"smiles": "COc1cc2c(cc1OC)-c1c(OC)c(OC)cc3ccnc(c13)C2=O", "note": "[Compound 57704, 1,2,9,10-tetramethoxy-7H-dibenzo[de,g]quinolin-7-one]", "values": [{"measurement": "Agonist activity: effect on inhibition of PI3K p110α by wortmannin", "setting": "PI3K p110α", "result": "abrogated the ability of wortmannin to inhibit PI3K p110α"}, {"measurement": "Increase of HIV-1 RNA in culture supernatants compared to the control", "setting": "[1]; 5 µM 57704, mean of 4 donors", "result": "~4", "unit": "fold"}, {"measurement": "CD8+-depleted blood mononuclear cell preparations (donors) with increased HIV-1 expression", "setting": "[1]; 4 donors on suppressive cART tested", "result": "3 of 4"}, {"measurement": "Copies HIV RNA/mL", "setting": "[1]; donor 1, 1 µM 57704, control 96", "result": 0, "unit": "copies/mL"}, {"measurement": "Copies HIV RNA/mL", "setting": "[1]; donor 1, 5 µM 57704, control 96", "result": 389, "unit": "copies/mL"}, {"measurement": "Copies HIV RNA/mL", "setting": "[1]; donor 2, 1 µM 57704, control 0", "result": 79, "unit": "copies/mL"}, {"measurement": "Copies HIV RNA/mL", "setting": "[1]; donor 2, 5 µM 57704, control 0", "result": 35, "unit": "copies/mL"}, {"measurement": "Copies HIV RNA/mL", "setting": "[1]; donor 3, 1 µM 57704, control 0", "result": 10, "unit": "copies/mL"}, {"measurement": "Copies HIV RNA/mL", "setting": "[1]; donor 3, 5 µM 57704, control 0", "result": 0, "unit": "copies/mL"}, {"measurement": "Copies HIV RNA/mL", "setting": "[1]; donor 4, 1 µM 57704, control 20", "result": 20, "unit": "copies/mL"}, {"measurement": "CC50 at 24 h", "setting": "[2]", "result": "92.9 ± 7.5", "unit": "µM"}, {"measurement": "EC50", "setting": "[3]; Human immunodeficiency virus 1, read-out: EC50, activation of early HIV-1 gene transcript expression", "result": 8.2, "unit": "µM"}, {"measurement": "EC50", "setting": "[3]; Human immunodeficiency virus 1, read-out: EC50, activation of late HIV-1 gene transcript expression", "result": 4.9, "unit": "µM"}, {"measurement": "Latent HIV-1 reactivation activity in combination with prostratin", "setting": "[3]; U1, 5 µM 57704 + 1 µM prostratin", "result": "increased in an additive manner"}, {"measurement": "Latent HIV-1 reactivation activity in combination with DSF", "setting": "[3]; U1, 5 µM 57704 + 2.5 µM DSF", "result": "increased in an additive manner"}, {"measurement": "Latent HIV-1 reactivation activity in combination with SAHA", "setting": "[3]; U1, 5 µM 57704 + 5 µM SAHA", "result": "increased in an additive manner"}, {"measurement": "Latent HIV-1 reactivation activity in combination with BIX-01294", "setting": "[3]; U1, 5 µM 57704 + 20 µM BIX-01294", "result": "increased in an additive manner"}, {"measurement": "EC50", "setting": "[4]; Human immunodeficiency virus 1, read-out: EC50, reactivation of latent HIV-1 gene expression", "result": "10.3 ± 1.2", "unit": "µM"}, {"measurement": "Latent HIV-1 reactivation activity in presence of PI3K inhibitor wortmannin", "setting": "[4]; J89GFP, 20 nM wortmannin", "result": "significantly attenuated"}, {"measurement": "Latent HIV-1 reactivation activity in presence of p38 MAPK inhibitor SB203580", "setting": "[4]; J89GFP, 50 nM SB203580", "result": "unaffected"}, {"measurement": "Latent HIV-1 reactivation activity in presence of Akt Inhibitor IV", "setting": "[4]; J89GFP, 500 nM Akt Inhibitor IV", "result": "significantly attenuated"}, {"measurement": "Latent HIV-1 reactivation activity in presence of PKC inhibitor Gö6983", "setting": "[4]; J89GFP, 500 nM Go6983", "result": "unaffected"}, {"measurement": "Latent HIV-1 reactivation activity in presence of JNK inhibitor SP600125", "setting": "[4]; J89GFP, 1 µM SP00125", "result": "unaffected"}, {"measurement": "Latent HIV-1 reactivation activity in presence of NFAT/calcineurin inhibitor cyclosporin A", "setting": "[4]; J89GFP, 1 µM cyclosporin A", "result": "unaffected"}, {"measurement": "Latent HIV-1 reactivation activity in presence of PI3K p110γ inhibitor AS-605240", "setting": "[4]; J89GFP, 2 µM AS-605240", "result": "moderately enhanced"}, {"measurement": "Latent HIV-1 reactivation activity in presence of PI3K p110α specific inhibitor PI-103", "setting": "[4]; J89GFP, 2 µM PI-103", "result": "significantly attenuated"}, {"measurement": "Latent HIV-1 reactivation activity in presence of PI3K p110β inhibitor TGX-221", "setting": "[4]; J89GFP, 2 µM TGX-221", "result": "moderately enhanced"}, {"measurement": "Latent HIV-1 reactivation activity in presence of PI3K p110δ inhibitor IC87114", "setting": "[4]; J89GFP, 5 µM IC87114", "result": "not reduced"}, {"measurement": "Latent HIV-1 reactivation activity in presence of pan PI3K inhibitor LY 294002", "setting": "[4]; J89GFP, 15 µM LY294002", "result": "significantly attenuated"}, {"measurement": "Latent HIV-1 reactivation activity in presence of NF-κB inhibitor 6-amino-4-(4-phenoxyphenylethylamino) quinazoline", "setting": "[4]; J89GFP, 20 µM NF-κB activation inhibitor", "result": "significantly attenuated"}, {"measurement": "Surface expression of CD69, CD38 and HLA-DR", "setting": "purified T cells", "result": "did not up-regulate"}]}]}
